{
  "source": "patent US20170059573A1",
  "about": "“METHOD OF DETECTING PEROXYNITRITE USING A COMPLEX OF A SACCHARIDE AND AN ARYLBORONATE-BASED FLUORESCENT PROBE” (UNIVERSITY OF BATH, priority 2014, published 2017)",
  "key": {"[1]": {"experiment": "pH titration of fluorescence intensity", "assay_type": "physicochemical", "details": "probe 2 μM", "method": "As shown by FIG. 2, the fluorescence intensity of the probe 1 decreased at pH values above 8.0. […] Thus, the probe can be expected to work well under physiological conditions (pH 7.30, PBS buffer). In the presence of D-fructose (100 mM), the fluorescence of the formed 1-D-fructose complex increases due to the enhanced N—B interaction at different pH values. The fluorescence of 1-D-fructose complex decreases over a pH range of 3-11."}, "[2]": {"experiment": "UV-Vis absorption spectra", "assay_type": "physicochemical", "method": "While the presence of ONOO^− (100 μM), a new peak (A=0.021) at 360 nm developed due to the formation of phenol."}, "[3]": {"experiment": "Fluorescence response to D-fructose binding", "details": "probe 2 μM; D-fructose 100 mM; pH 7.3 buffer", "method": "(a) Fluorescence spectra of probe 1 (2 μM) and then addition of D-fructose (100 mM). After addition of D-fructose, the mixtures were stirred for 10 min; (b) Probe 1-D-fructose complex (probe 1, 2 μM; D-fructose, 100 mM) in different concentration of ONOO^−. After addition of peroxynitrite, the mixtures were stirred for 5 min;\nThe saccharide-boronic acid complexes were formed by mixing free boronic acid (2 μM) with D-fructose (100 mM) for 10 min in situ.\nIn the case of probe 1, a significant “off-on” signal response is seen on binding with D-fructose due to an inhibition of PET mechanism. From FIG. 3a, the maximum fluorescence intensity of probe 1 (2 μM, λem=525 nm) is increased two-fold in the presence of D-fructose (100 mM) at pH 7.3 buffer solution."}, "[4]": {"experiment": "Fluorescence titration with peroxynitrite", "details": "saccharide free probe 2 μM; peroxynitrite 60 μM; pH 7.3 PBS"}, "[5]": {"experiment": "Fluorescence response to hydrogen peroxide", "method": "The pH was adjusted from 7.30 to 8.10 using aqueous sodium hydroxide (10 N); (b) Fluorescence spectra of probe 1-D-fructose complex (probe 1, 2 μM; D-fructose, 100 mM) in the presence of hydrogen peroxide (1 mM) at pH 7.3 buffer solution. The spectra were collected at increasing reaction times with excitation at 410 nm (Ex slit: 5.0, Em slit: 5.0);\nThe concentration of hydrogen peroxide (H2O2) was determined from the absorption at 240 nm (ε=43.6 M^−1 cm^−1).\nSince boronate-based derivatives can be oxidized to phenol by H2O2 and ONOO^−, it is important to discriminate them by fluorescence tools. Independently, the present inventors tested the responses of probe 1 and 1-D-fructose complex towards hydrogen peroxide (FIG. 7). With the free boronic acid system, the fluorescence of probe 1 (2 μM) increased to F/F0=ca. 1.59 in the presence of hydrogen peroxide (100 μM) over 1 h at pH 7.30 buffer solution. When the solution was adjusted to pH 8.10, the fluorescence decreased most probably due to the decomposition of the intermediate to phenol (FIG. 7a). This is different from the process observed for the detection of ONOO^− in which boronic acid was transformed into phenol quickly and directly.\nThe fluorescence reaction of 1-D-fructose complex towards ONOO^− amd H2O2 at pH 5.0 buffer solution in order to mimic the acidic conditions found in cancer cells (FS5) was also studied. […]"}},
  "data": [
    {"molecule": "CN(CCNc1ccc2c3c(cccc13)C(=O)N(CCOCCO)C2=O)Cc1ccccc1B(O)O", "note": "[probe 1]", "values": [
      {"measurement": "pH effect on fluorescence intensity", "setting": "[1]; pH range between 3.0 and 8.0", "value": "minimal effect"},
      {"measurement": "pH effect on fluorescence intensity", "setting": "[1]; pH values above 8.0", "value": "decreased"},
      {"measurement": "maximum absorption A at 440 nm", "setting": "[2]; free boronic acid probe 2 μM", "value": 0.026},
      {"measurement": "absorption A of new peak at 360 nm", "setting": "[2]; in presence of ONOO− 100 μM", "value": 0.021},
      {"measurement": "absorption A at the maximum absorption wavelength", "setting": "[2]; probe 2 μM with D-fructose 100 mM", "value": 0.019},
      {"measurement": "increase of maximum fluorescence intensity (λem=525 nm) in presence of D-fructose", "setting": "[3]", "value": "two-fold"},
      {"measurement": "F/F0", "setting": "[4]", "value": "ca. 0.10"},
      {"measurement": "F/F0", "setting": "[5]; free boronic acid probe 2 μM, hydrogen peroxide 100 μM over 1 h, pH 7.30 buffer", "value": "ca. 1.59"},
      {"measurement": "fluorescence after adjusting the solution to pH 8.10", "setting": "[5]; probe 2 μM after H2O2 100 μM, pH adjusted from 7.30 to 8.10", "value": "decreased"}
    ]}
  ]
}
